These results are taken from patent US11439641B2, “Pyrimidine JAK inhibitors for the treatment of skin diseases” (THERAVANCE BIOPHARMA R&D IP, LLC, priority 2019, dated 2022).

Series [1] in a line: Solubility Assay in Organic Excipients. The conditions noted are these: maximum upper limit 20,000 μM; for Solubility in MCT (mg/mL): medium chain triglycerides (MCT).
Procedure: Assay 6: Solubility Assay in Organic Excipients
The purpose of this assay was to quantify the solubility of test compounds in different organic excipients such as diisopropyl adipate, medium chain triglycerides (MCT), propylene glycol, and polyethylene glycol. The assay required 80 μL of 100 mM DMSO test compound solution per desired excipient in addition to 40 μL required to make a test standard.
The standard was created by diluting 40 μL of 100 mM DMSO compound stock solution into 160 μL of methanol and was shaken for five minutes to ensure solution uniformity. […] This 20,000 μM solution was run on an Agilent 1260 LC-MS system by injecting 0.2 μL in order to obtain the peak area. For the test solutions, 80 μL of 100 mM DMSO compound stock solution, per excipient, were dried down into a powder overnight. Once in powder form, 400 μL of the desired excipient was added to the powder and allowed to shake vigorously for four hours. The maximum theoretical concentration for this sample solution was 20,000 μM. After four hours of shaking, the samples were centrifuged for 10 minutes at 3,000 RPM before injecting 0.2 μL on the same Agilent 1260 LC-MS system to obtain the peak area.
A short description of series [2]: Aqueous Solubility Assay. The conditions noted are these: PBS buffer pH 7.4; maximum upper limit 1,000 μM.
Procedure: Assay 5: Aqueous Solubility Assay
The purpose of this assay was to quantify the solubility of test compounds in pH 4 and pH 7.4 PBS buffers. The assay required 40 μL of 10 mM DMSO test compound solution per desired buffer in addition to 20 μL required to make a test standard. For example, to test a compound in both buffers, 100 μL (2*40 μL+20 μL) of 10 mM DMSO compound stock solution was required.
The standard was created by diluting 20 μL of 10 mM DMSO compound stock solution into 180 μL of methanol and was shaken for five minutes to ensure solution uniformity. […] This 1,000 μM solution was run on an Agilent 1260 LC-MS system by injecting 2 μL in order to obtain the peak area. For the test solutions, 40 μL of 10 mM DMSO compound stock solution, per PBS buffer condition, were dried down into a powder overnight. Once in powder form, 400 μL of the desired PBS buffer was added to the powder and allowed to shake vigorously for four hours. The maximum theoretical concentration for this sample solution was 1,000 μM. After four hours of shaking, the samples were centrifuged for 10 minutes at 3,000 RPM before injecting 2 μL on the same Agilent 1260 LC-MS system to obtain the peak area.
In Table 6 below, A represents a value above 500, B represents a value between 250 and 500, C represents a value between 50 and 250, D represents a value between 10 and 50, and E represents a value below 10.
Series [3] is described as follows: Human Liver Microsome Assay. The conditions noted are these: human liver microsomes 0.1 mg/mL, 0.1 μM compound, 1 mM NADPH, 37° C. (Liver microsomes are a subcellular fraction often used to study metabolism.)
Procedure: Assay 4: Human Liver Microsome Assay
The objective of this assay was to assess the metabolic stability of test compounds in an in vitro human liver sub-fraction. Human liver microsomes obtained from Bioreclamation-IVT (Baltimore, Md.) were thawed on ice and diluted into 0.1 M potassium phosphate buffer pH 7.4 to yield final incubation protein concentrations of 0.1 mg/mL. Test compounds (10 mM) were diluted into NADPH cofactor to yield final incubation concentrations of 0.1 μM test compound and 1 mM NADPH. Incubations were conducted at 37° C. temperature and test aliquots were taken at time points 0, 5, 8, 15, 30 and 45 minutes. Each aliquot was crashed into water with 3% formic acid and 1 μM internal standard. The resulting samples were injected onto an LC-MS/MS system for analysis.
For each incubation, the peak area of the analytes in each t0 aliquot was set to 100% and the peak areas from subsequent time point aliquots were converted to percentage of parent compound remaining relative to t0. The percentage of parent compound remaining was converted to natural log scale and plotted versus time in minutes. A linear regression analysis was performed for the initial decline of the parent disappearance profile and a formula for the best-fit line determined. The slope of the resultant line was normalized to protein concentration in mg/mL protein or number of cells/mL and CLint was calculated as follows for liver microsomes: CLint(μL·min^−1·mg^−1)=(Slope×1000)/[protein,mg/mL]
CLint values from 9-49 μl/min/mg represent moderate clearance (i.e. 30-70% of hepatic blood flow in human) and values >50 μl/min/mg represent high hepatic clearance (i.e. >70% of hepatic blood flow in human).
In series [4] the target is JAK3 (Homo sapiens (Human), UniProt P52333). Put plainly: Biochemical JAK and Tyk2 Kinase Assays (LanthaScreen), JAK3. The conditions noted are these: 1.6 μM ATP (Km); pIC50 converted to pKi by Cheng-Prusoff.
In series [5] the test system is IL-2 stimulated pSTAT5 in Tall-1 T cells. The series is described as follows: Inhibition of IL-2 Stimulated pSTAT5 in Tall-1 T Cells. The class given is cell-based. The settings on record: Tall-1 human T cell line, IL-2 300 ng/mL, AlphaLisa. In outline: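 Cells preincubated with compound 1 hour at 37° C, then stimulated with IL-2 (final 300 ng/mL) for 30 minutes. After lysis, pSTAT5 (Tyr694/699) read by AlphaLISA luminescence. IC50 from inhibition curves, reported as pIC50 (mean±SD).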
Background: In Alpha technology, singlet oxygen from a donor bead excites a nearby acceptor bead.

Series [6] relates to Caco-2 cell monolayer. Put plainly: Caco-2 Permeation Assay. The series is classed as in vitro ADME. The settings on record: Papp, 5 μM compound; for Cacoverap Kp 10^−6 cm/sec: A→B in the presence of 25 μM verapamil (P-gp inhibitor); for Caco Kp 10^−6 cm/sec: apical to basal (A→B). The procedure, abridged: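 Compound at 5 μM, in duplicate, crosses Caco-2 monolayers apical to basal over 120 min at 37 °C. This is run with and without 25 μM verapamil to test for P-gp efflux. Samples are quantified by LC-MS/MS, and Papp in cm/sec is calculated as dQ/(dt × area × concentration).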
Background: Caco-2 monolayers are a common model of the intestinal barrier.

The target in series [7] is JAK1 (Homo sapiens (Human), UniProt P23458). Put plainly: Biochemical JAK and Tyk2 Kinase Assays (LanthaScreen), JAK1. The settings on record: 25 μM ATP (Km); pIC50 converted to pKi by Cheng-Prusoff.
For series [8], the target named is JAK2 (Homo sapiens (Human), UniProt O60674). Put plainly: Biochemical JAK and Tyk2 Kinase Assays (LanthaScreen), JAK2. The settings on record: 3 μM ATP (Km); pIC50 converted to pKi by Cheng-Prusoff. The method, then: (§1) Assay 1: Biochemical JAK and Tyk2 Kinase Assays
(§2) A panel of four LanthaScreen JAK biochemical assays (JAK1, 2, 3 and Tyk2) were carried in a common kinase reaction buffer (50 mM HEPES, pH 7.5, 0.01% Brij-35, 10 mM MgCl2, and 1 mM EGTA). Recombinant GST-tagged JAK enzymes and a GFP-tagged STAT1 peptide substrate were obtained from Life Technologies.
(§3) Serially or discretely diluted compounds were pre-incubated with each of the four JAK enzymes and the substrate in white 384-well microplates (Corning) at ambient temperature for 1 h. ATP was subsequently added to initiate the kinase reactions in 10 μL total volume, with 1% DMSO. The final enzyme concentrations for JAK1, 2, 3 and Tyk2 are 4.2 nM, 0.1 nM, 1 nM, and 0.25 nM respectively; the corresponding Km ATP concentrations used are 25 μM, 3 μM, 1.6 μM, and 10 μM; while the substrate concentration is 200 nM for all four assays. Kinase reactions were allowed to proceed for 1 hour at ambient temperature before a 10 μL preparation of EDTA (10 mM final concentration) and Tb-anti-pSTAT1 (pTyr701) antibody (Life Technologies, 2 nM final concentration) in TR-FRET dilution buffer (Life Technologies) was added. The plates were allowed to incubate at ambient temperature for 1 h before being read on the EnVision reader (Perkin Elmer). Emission ratio signals (520 nm/495 nm) were recorded and utilized to calculate the percent inhibition values based on DMSO and background controls.
(§4) For dose-response analysis, percent inhibition data were plotted vs. compound concentrations, and IC50 values were determined from a 4-parameter robust fit model with the Prism software (GraphPad Software). Results were expressed as pIC50 (negative logarithm of IC50) and subsequently converted to pKi (negative logarithm of dissociation constant, Ki) using the Cheng-Prusoff equation.

Series [9] addresses Tyk2 (Homo sapiens (Human), UniProt P29597). Put plainly: Biochemical JAK and Tyk2 Kinase Assays (LanthaScreen), Tyk2. The conditions noted are these: 10 μM ATP (Km); pIC50 converted to pKi by Cheng-Prusoff. Here is the method: as §1, §2, §3, §4

Chain of JAK1 (P23458 whole entry): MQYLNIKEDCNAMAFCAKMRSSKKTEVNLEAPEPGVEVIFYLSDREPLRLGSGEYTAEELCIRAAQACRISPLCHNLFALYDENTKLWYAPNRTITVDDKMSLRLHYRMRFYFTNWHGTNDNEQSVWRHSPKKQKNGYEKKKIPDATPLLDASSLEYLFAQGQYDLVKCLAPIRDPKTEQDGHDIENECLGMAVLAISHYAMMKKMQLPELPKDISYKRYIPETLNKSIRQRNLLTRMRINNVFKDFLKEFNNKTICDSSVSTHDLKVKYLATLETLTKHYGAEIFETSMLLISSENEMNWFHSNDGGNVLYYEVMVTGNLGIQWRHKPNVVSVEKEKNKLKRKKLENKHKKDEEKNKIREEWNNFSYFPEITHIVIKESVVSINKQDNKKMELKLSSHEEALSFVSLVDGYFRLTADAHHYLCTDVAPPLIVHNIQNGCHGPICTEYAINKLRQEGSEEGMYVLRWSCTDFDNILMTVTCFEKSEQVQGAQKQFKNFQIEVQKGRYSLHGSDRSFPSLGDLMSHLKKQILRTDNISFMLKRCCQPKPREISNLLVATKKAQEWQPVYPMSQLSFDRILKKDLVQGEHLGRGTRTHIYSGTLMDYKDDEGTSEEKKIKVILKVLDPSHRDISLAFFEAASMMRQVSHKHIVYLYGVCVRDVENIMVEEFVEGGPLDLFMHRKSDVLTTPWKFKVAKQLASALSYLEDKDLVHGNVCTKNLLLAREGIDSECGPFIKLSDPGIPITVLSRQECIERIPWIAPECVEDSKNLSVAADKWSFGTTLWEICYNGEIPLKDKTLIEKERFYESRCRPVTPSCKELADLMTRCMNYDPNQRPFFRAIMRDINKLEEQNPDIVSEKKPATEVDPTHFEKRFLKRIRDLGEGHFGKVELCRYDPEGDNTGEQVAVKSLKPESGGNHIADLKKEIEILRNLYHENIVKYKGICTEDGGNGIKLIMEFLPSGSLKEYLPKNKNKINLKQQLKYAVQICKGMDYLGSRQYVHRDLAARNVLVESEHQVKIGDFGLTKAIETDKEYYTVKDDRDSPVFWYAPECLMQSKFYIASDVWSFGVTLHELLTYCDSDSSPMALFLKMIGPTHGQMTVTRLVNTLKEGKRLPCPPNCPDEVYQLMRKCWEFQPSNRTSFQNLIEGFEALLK
Chain of JAK3 (P52333 whole entry): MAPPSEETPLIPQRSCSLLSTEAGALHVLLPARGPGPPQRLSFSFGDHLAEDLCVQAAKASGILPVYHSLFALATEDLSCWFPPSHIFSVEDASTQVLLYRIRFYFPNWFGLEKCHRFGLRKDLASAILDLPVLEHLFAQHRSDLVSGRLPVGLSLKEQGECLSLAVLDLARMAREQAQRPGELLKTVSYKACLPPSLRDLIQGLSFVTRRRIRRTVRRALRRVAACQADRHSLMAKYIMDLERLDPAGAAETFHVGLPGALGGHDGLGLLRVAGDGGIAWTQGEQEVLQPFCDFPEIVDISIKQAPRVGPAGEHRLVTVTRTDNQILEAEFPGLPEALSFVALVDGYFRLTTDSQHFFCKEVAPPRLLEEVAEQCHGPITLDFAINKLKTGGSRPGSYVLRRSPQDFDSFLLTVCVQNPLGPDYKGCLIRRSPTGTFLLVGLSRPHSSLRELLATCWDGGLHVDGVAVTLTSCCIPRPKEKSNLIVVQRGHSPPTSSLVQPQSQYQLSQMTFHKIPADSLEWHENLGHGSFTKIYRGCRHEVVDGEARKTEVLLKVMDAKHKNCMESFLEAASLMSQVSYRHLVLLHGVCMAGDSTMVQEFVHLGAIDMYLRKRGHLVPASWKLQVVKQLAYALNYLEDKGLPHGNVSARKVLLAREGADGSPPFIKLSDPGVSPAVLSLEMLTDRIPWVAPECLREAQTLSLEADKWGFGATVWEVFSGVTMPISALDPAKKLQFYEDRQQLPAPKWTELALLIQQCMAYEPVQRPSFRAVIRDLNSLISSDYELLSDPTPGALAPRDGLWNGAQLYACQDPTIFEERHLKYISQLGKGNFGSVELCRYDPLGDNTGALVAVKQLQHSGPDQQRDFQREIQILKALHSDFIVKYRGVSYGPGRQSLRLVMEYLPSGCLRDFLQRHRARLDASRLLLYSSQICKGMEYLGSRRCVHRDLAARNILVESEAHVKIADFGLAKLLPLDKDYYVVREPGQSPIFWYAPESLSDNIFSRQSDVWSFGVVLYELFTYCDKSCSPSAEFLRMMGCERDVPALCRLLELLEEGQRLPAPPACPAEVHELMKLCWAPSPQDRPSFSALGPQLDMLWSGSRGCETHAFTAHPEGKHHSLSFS
Chain of JAK2 (O60674 whole entry): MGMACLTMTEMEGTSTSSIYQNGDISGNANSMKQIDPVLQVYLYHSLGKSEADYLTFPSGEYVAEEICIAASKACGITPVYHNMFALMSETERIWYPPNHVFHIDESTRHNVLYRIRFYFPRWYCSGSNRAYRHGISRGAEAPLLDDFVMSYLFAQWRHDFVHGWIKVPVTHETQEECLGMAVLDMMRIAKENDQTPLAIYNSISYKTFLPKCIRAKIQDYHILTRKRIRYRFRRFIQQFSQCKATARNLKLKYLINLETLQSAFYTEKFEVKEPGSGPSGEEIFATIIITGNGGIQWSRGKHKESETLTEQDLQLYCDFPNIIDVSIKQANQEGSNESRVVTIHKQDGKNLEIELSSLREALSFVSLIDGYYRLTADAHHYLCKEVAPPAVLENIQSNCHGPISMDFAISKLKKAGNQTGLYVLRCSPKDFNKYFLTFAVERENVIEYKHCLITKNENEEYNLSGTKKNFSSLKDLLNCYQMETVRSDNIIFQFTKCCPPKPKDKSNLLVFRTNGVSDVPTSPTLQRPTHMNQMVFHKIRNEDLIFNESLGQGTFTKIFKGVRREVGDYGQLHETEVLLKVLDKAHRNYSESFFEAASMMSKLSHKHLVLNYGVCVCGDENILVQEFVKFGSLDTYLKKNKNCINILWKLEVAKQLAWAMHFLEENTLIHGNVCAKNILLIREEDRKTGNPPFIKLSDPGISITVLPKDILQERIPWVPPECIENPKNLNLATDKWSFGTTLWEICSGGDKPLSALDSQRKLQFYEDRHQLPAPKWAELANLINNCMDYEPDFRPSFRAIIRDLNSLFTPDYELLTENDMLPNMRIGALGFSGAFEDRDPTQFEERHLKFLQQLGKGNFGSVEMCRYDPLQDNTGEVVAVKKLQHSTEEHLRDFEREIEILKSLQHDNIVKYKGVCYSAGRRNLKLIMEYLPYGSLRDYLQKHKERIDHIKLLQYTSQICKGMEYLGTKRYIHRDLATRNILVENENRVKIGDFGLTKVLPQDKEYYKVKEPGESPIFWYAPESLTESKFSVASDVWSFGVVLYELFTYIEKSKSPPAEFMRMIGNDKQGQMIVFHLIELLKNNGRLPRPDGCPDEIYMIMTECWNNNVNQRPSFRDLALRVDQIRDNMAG
Chain of Tyk2 (P29597 whole entry): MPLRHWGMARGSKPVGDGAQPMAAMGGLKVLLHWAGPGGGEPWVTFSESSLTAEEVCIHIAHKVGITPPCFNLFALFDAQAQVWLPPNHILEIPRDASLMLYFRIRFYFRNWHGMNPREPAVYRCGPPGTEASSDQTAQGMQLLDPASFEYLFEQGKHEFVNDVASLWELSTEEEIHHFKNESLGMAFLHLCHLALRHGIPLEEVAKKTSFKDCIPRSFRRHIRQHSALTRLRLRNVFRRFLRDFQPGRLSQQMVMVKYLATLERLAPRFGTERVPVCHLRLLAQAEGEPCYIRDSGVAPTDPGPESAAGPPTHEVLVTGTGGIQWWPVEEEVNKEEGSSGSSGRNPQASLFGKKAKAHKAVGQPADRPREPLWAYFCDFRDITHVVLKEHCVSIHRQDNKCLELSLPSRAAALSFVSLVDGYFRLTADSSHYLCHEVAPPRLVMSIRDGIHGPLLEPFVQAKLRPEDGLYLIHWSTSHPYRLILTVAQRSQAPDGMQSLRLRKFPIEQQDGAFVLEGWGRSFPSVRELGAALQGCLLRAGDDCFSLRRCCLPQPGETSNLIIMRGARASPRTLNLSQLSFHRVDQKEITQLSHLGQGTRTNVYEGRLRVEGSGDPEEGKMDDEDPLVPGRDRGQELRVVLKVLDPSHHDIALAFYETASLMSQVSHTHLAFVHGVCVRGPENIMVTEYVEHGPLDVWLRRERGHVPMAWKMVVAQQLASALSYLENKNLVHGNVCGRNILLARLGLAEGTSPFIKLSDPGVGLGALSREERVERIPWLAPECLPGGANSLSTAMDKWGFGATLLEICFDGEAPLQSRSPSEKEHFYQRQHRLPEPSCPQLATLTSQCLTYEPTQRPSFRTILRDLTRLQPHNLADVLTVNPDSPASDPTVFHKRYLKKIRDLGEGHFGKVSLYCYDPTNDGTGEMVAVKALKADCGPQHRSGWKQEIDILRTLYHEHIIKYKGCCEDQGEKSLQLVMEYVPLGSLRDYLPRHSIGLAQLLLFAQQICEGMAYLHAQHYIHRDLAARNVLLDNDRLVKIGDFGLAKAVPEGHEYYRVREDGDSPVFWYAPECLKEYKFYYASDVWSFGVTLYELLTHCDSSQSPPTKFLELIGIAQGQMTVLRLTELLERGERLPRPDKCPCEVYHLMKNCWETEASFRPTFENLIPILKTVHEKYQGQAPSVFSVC

Regarding `CCS(=O)(=O)N1[C@@H]2CCC[C@H]1C[C@H](N(C)c1nc(Nc3cc(C)[nH]n3)cc(C3CCOC3)n1)C2` (stereo partly drawn) [Compound 5, N^2-((1R,3s,5S)-9-(ethylsulfonyl)-9-azabicyclo[3.3.1]nonan-3-yl)-N2-methyl-N4-(5-methyl-1H-pyrazol-3-yl)-6-(tetrahydrofuran-3-yl)pyrimidine-2,4-diamine], in series [1], the “Solubility in PEG400 (mg/mL)” value is reported as “A (A represents a value above 10)”; the “Solubility in Diisopropyl adipate (mg/mL)” value was “B (B represents a value between 5 and 10)”; the “Solubility in MCT (mg/mL)” value is “C (C represents a value below 5)”; the “Solubility in Propylene glycol (mg/mL)” value was “A (A represents a value above 10)”. In series [2], the “Solubility at PH 7.4 (μmol)” value is recorded as “E (E represents a value below 10)”. Also, the “HLM Clin μL/min/mg” value in series [3] is “A (A represents a Clint value between 1250 and 3000)”. In addition, the “JAK 3 (pKi)” value in series [4] was “B (B represents a pKi value between 9 and 10 (Ki between 1 nM and 0.1 nM))”. Moreover, the “Tall-1 IL2 pSTAT5 (pIC50)” value in [5] is “A (A represents a pIC50 value ≥8.0)”. In series [6], the “Cacoverap Kp 10^−6 cm/sec” value is “A (A represents a value above 35×10^−6 cm/sec)” and the “Caco Kp 10^−6 cm/sec” value is recorded as “A (A represents a value above 30×10^−6 cm/sec)”. In series [7], the “JAK 1 (pKi)” value is listed as “A (A represents a pKi value ≥10 (Ki≤0.1 nM))”.

Turning to `CCS(=O)(=O)N1[C@@H]2CCC[C@H]1C[C@H](N(C)c1nc(Nc3cc(C)[nH]n3)cc([C@@H]3CCCO3)n1)C2` [Compound 10], the “Solubility at PH 7.4 (μmol)” value in series [2] was “C (C represents a value between 50 and 250)”. The “HLM Clin μL/min/mg” value in [3] is “A (A represents a Clint value between 1250 and 3000)”. The “JAK 3 (pKi)” value in [4] is “B (B represents a pKi value between 9 and 10 (Ki between 1 nM and 0.1 nM))”. Besides, the “Tall-1 IL2 pSTAT5 (pIC50)” value in series [5] is “A (A represents a pIC50 value ≥8.0)”. In series [8], the “JAK 2 (pKi)” value was “A (A represents a pKi value ≥10 (Ki≤0.1 nM))”. Besides, in series [6], the “Cacoverap Kp 10^−6 cm/sec” value is given as “A (A represents a value above 35×10^−6 cm/sec)” and the “Caco Kp 10^−6 cm/sec” value was “A (A represents a value above 30×10^−6 cm/sec)”. Further, the “JAK 1 (pKi)” value in series [7] is “A (A represents a pKi value ≥10 (Ki≤0.1 nM))”. In addition, the “Tyk 2 (pKi)” value in series [9] was “A (A represents a pKi value ≥10 (Ki≤0.1 nM))”.

Turning to `COC(=O)N1[C@@H]2CCC[C@H]1C[C@H](N(C)c1nc(Nc3cc(C)[nH]n3)cc(C3CCCO3)n1)C2` (stereo partly drawn) [Compound 11, methyl (1R,3s,5S)-3-(methyl(4-((5-methyl-1H-pyrazol-3-yl)amino)-6-(tetrahydrofuran-2-yl)pyrimidin-2-yl)amino)-9-azabicyclo[3.3.1]nonane-9-carboxylate], in series [1], the “Solubility in PEG400 (mg/mL)” value is reported as “A (A represents a value above 10)”; the “Solubility in Diisopropyl adipate (mg/mL)” value is recorded as “A (A represents a value above 10)”; the “Solubility in MCT (mg/mL)” value was “B (B represents a value between 5 and 10)”; the “Solubility in Propylene glycol (mg/mL)” value is recorded as “A (A represents a value above 10)”. Further, the “Solubility at PH 7.4 (μmol)” value in series [2] is “C (C represents a value between 50 and 250)”. Moreover, in [4], the “JAK 3 (pKi)” value was “C (C represents a pKi value between 8 and 9 (Ki between 10 nM and 1 nM))”. The “Tall-1 IL2 pSTAT5 (pIC50)” value in series [5] is on record as “A (A represents a pIC50 value ≥8.0)”. Further, the “JAK 2 (pKi)” value in [8] was “B (B represents a pKi value between 9 and 10 (Ki between 1 nM and 0.1 nM))”. In addition, in series [6], the “Cacoverap Kp 10^−6 cm/sec” value was “B (B represents a value between 20×10^−6 and 35×10^−6 cm/sec)”; the “Caco Kp 10^−6 cm/sec” value is “B (B represents a value between 15×10^−6 and 30×10^−6 cm/sec)”. In series [7], the “JAK 1 (pKi)” value is listed as “A (A represents a pKi value ≥10 (Ki≤0.1 nM))”. Besides, in series [9], the “Tyk 2 (pKi)” value was “B (B represents a pKi value between 9 and 10 (Ki between 1 nM and 0.1 nM))”.

As to `CCS(=O)(=O)N1[C@@H]2CCC[C@H]1C[C@H](N(C)c1nc(Nc3cc(C)[nH]n3)cc([C@H]3CCCO3)n1)C2` [Compound 9], the “Solubility at PH 7.4 (μmol)” value in series [2] was “C (C represents a value between 50 and 250)”. Moreover, the “HLM Clin μL/min/mg” value in series [3] is “A (A represents a Clint value between 1250 and 3000)”. Further, in [4], the “JAK 3 (pKi)” value was “B (B represents a pKi value between 9 and 10 (Ki between 1 nM and 0.1 nM))”. The “Tall-1 IL2 pSTAT5 (pIC50)” value in [5] was “A (A represents a pIC50 value ≥8.0)”. The “JAK 2 (pKi)” value in [8] is reported as “A (A represents a pKi value ≥10 (Ki≤0.1 nM))”. In series [6], the “Cacoverap Kp 10^−6 cm/sec” value is recorded as “A (A represents a value above 35×10^−6 cm/sec)” and the “Caco Kp 10^−6 cm/sec” value is “A (A represents a value above 30×10^−6 cm/sec)”. Further, in series [7], the “JAK 1 (pKi)” value is given as “A (A represents a pKi value ≥10 (Ki≤0.1 nM))”. Moreover, the “Tyk 2 (pKi)” value in [9] was “A (A represents a pKi value ≥10 (Ki≤0.1 nM))”.
